Laboratory results taken from US8012983B2, “Substituted triazolopyrazines useful for the treatment of degenerative and inflammatory diseases” (Galapagos NV, priority 2008, dated 2011).

Test system: MMP13 expression in SW1353 chondrosarcoma cell line
Assay: MMP13 assay: IL-1/OSM-driven MMP13 expression in SW1353 cells (MMP13 ELISA)
Assay type: cell-based
Details: Homo sapiens, IL-1β and OSM, 48 hr
Procedure: The protocol of the MMP13 ELISA is described in section 4.1, then testing of compounds on release of IL-1/OSM-driven MMP13 expression in SW1353 chondrosarcoma cell line is described in section 4.2.
A 384 well format ELISA for measurement of MMP13 was developed. Various primary antibodies were tested, as well as various ELISA protocols. The following protocol is developed and validated to measure MMP13 levels in supernatant of cell cultures in 384 well plates.
Black maxisorb 384 well plates (Nunc 460518) are coated with 35 μl of a buffered solution containing 1.5 μg/mL anti-MMP13 antibody MAB511 (R&D systems). The antibody is diluted in carbonate-bicarbonate coating buffer (1.59 g Na2CO3 (Sigma S-7795) and 2.93 g NaHCO3 (Sigma S-5761) in 1 L MilliQ water, adjusted to pH 9.6). After overnight incubation at 4° C., wells are washed twice with 100 μL PBST (80 g NaCl, 2 g KCl (Sigma), 11.5 g Na2HPO4.7H2O and 2 g KH2PO4 in 10 L milliQ water; pH 7.4+0.05% Tween-20 (Sigma)) and blocked with 100 μL/well blocking buffer (5% non fat dry milk in PBS). After overnight incubation at 4° C., wells are washed twice with 100 μL PBST. The PBST is removed and 35 μL of sample is transferred to the ELISA plates. After 4 hr incubation at RT, plates are washed twice with PBST and incubated for 1 hr at 37° C. with 35 μL/well 1.5 mM APMA solution (a 10 mM APMA stock solution is prepared one day before (35.18 mg APMA (Sigma A-9563) in 10 mL 0.1M NaOH (Merck 1.06469.1000) and stored at 4° C. Before use, the 10 mM APMA stock solution is diluted to 1.5 mM in 1×APMA buffer (10× APMA buffer: 500 mM Tris (Roche 708976), 50 mM CaCl2 (Sigma C-5080), […] ZnCl2 (Sigma Z-0173), 1.5 M NaCl (Calbiochem 567441), 0.5% Brij35 (Sigma 430 AG-6) and adjust to pH 7.0). After activation of MMP13 by APMA, plates are washed again two times with 100 μL PBST/well and 35 μL of substrate solution is added to each well. Substrate solution is prepared as follows: OmniMMP Fluorescent substrate (Biomol P-126) stock solution (2 mM in DMSO, stored at −20° C.) is diluted in 1× OmniMMP buffer (10× OmniMMP buffer: 500 mM Hepes (Sigma H4034), 100 mM CaCl2 (Sigma C5080), 0.5% Brij35 (Sigma 430 AG-6; adjusted to pH 7.0) to a final concentration of 0.01 mM. After an overnight incubation at 37° C., the active MMP13 in the sample has cleaved the substrate and released fluorescence. Readout is performed on the EnVision (Perkin Elmer) using 320 nm excitation/405 nm emission filters.
Human chondrosarcoma cell line SW1353 was acquired from ATCC and grown in DMEM supplemented with 10% heat-inactivated FBS and 1× penicillin/streptomycin (Invitrogen) in a humidified 5% CO2 incubator at 37° C. Aliquots of the cells were frozen and cryopreserved in liquid nitrogen. Starting from a cryopreserved aliquot, cells are further grown by sub-culturing at a 1/5-1/8 ratio twice a week by trypsinisation.
Starting from the compound master stocks (all at 10 mM concentration in 100% DMSO) a 3-fold serial dilution is made in 96-well plates in 100% DMSO. Then, plates are futher diluted 50-fold in M199 medium supplemented with 1% heat-inactivated FBS to obtain an intermediate work stock.
At day 1, SW1353 cells are seeded in 96-well plates (flat bottom, tissue culture treated, Greiner) at a density of 15000 cells/well in 120 μL growth medium. The next day, 15 μL compound out of the intermediate work stock is added. After an incubation period of 60 minutes, which allows the compounds to equilibrate and enter the cells, cells are stimulated with a mixture of IL-1β and OSM, added in a volume of 15 μL to obtain final concentrations of 1 ng/ml IL-1β and 25 ng/ml OSM. For that, stocks of IL-1 (10 μg/ml) and OSM (25 μg/ml) (both PeproTech) were diluted to 10 ng/ml and 250 ng/ml respectively, in M199 medium supplemented with 1% FBS. After incubation for 48 hr, the cell supernatant was harvested and an appropriate dilution was processed in the MMP13 ELISA as described above, delivering raw data (RFU: relative fluorescence units). […]

Row | Compound | IC50
1 | CC(C)N1C[C@@H]2C[C@H]1CN2c1ccc(Nc2ncc(-c3cc(C(N)=O)n[nH]3)n3ncnc23)cc1 [Compound 5, 5-{8-(4-((1S,4S)-5-isopropyl-2,5-diazabicyclo[2.2.1]heptan-2-yl)phenyl-amino)-[1,2,4]triazolo[1,5-a]pyrazin-5-yl}-1H-pyrazole-3-carboxamide] | > 1 µM
2 | CC(C)N1C[C@@H]2C[C@H]1CN2c1ccc(Nc2ncc(-c3ccc4c(c3)CNC4=O)n3ncnc23)cc1 [Compound 1, 5-{8-[4-((1S,4S)-5-Isopropyl-2,5-diaza-bicyclo[2.2.1]hept-2-yl)-phenylamino]-[1,2,4]triazolo[1,5-a]pyrazin-5-yl}-2,3-dihydro-isoindol-1-one] | > 1 µM
3 | CC(C)(C)N1C[C@@H]2C[C@H]1CN2c1ccc(Nc2ncc(-c3ccc4c(c3)CNC4=O)n3ncnc23)cc1 [Compound 16, 5-{8-(4-((1S,4S)-5-tert-butyl-2,5-diazabicyclo[2.2.1]heptan-2-yl)phenylamino)-[1,2,4]triazolo-[1,5-a]pyrazin-5-yl}-2,3-dihydro-isoindol-1-one] | > 1 µM
4 | CC(C)N1C[C@@H]2C[C@H]1CN2c1ccc(Nc2ncc(-c3cc(C(N)=O)n[nH]3)n3ncnc23)cn1 [Compound 15, 5-{8-(6-((1S,4S)-5-isopropyl-2,5-diazabicyclo[2.2.1]heptan-2-yl)pyridin-3-ylamino)-[1,2,4]triazolo[1,5-a]pyrazin-5-yl}-1H-pyrazole-3-carboxylic acid amide] | > 1 µM
5 | CCOC(=O)c1cc(-c2cnc(Nc3ccc(N4C[C@@H]5C[C@H]4CN5C(C)C)cc3)c3ncnn23)[nH]n1 [Compound 21, Ethyl 5-(8-(4-((1S,4S)-5-isopropyl-2,5-diazabicyclo[2.2.1]heptan-2-yl)phenylamino)-[1,2,4]triazolo[1,5-a]pyrazin-5-yl)-1H-pyrazole-3-carboxylate] | > 1 µM
6 | CC(C)N1C[C@@H]2C[C@H]1CN2c1ccc(Nc2ncc(-c3noc(C(N)=O)n3)n3ncnc23)cc1 [Compound 23, 3-(8-(4-((1S,4S)-5-isopropyl-2,5-diazabicyclo[2.2.1]heptan-2-yl)phenylamino)-[1,2,4]triazolo[1,5-a]pyrazin-5-yl)-1,2,4-oxadiazole-5-carboxamide] | > 1 µM
7 | CCOc1cc(-c2cnc(Nc3ccc(N4C[C@@H]5C[C@H]4CN5C(C)C)cc3)c3ncnn23)ccn1 [Compound 19, 5-(2-ethoxypyridin-4-yl)-N-(4-((1S,4S)-5-isopropyl-2,5-diazabicyclo[2.2.1]heptan-2-yl)phenyl)-[1,2,4]triazolo[1,5-a]pyrazin-8-amine] | > 1 µM
8 | CC(C)N1CC2CCC1CN2c1ccc(Nc2ncc(-c3coc(C(N)=O)c3)n3ncnc23)cc1 (centres unmarked) [Compound 9, 4-{8-(4-(5-isopropyl-2,5-diazabicyclo[2.2.2]octan-2-yl)phenylamino)[1,2,4]-triazolo[1,5-a]pyrazin-5-yl}-furan-2-carboxamide] | > 1 µM
9 | CC(C)N1C[C@@H]2C[C@H]1CN2c1ccc(Nc2ncc(-c3ccc4c(c3)CNC4=O)n3ncnc23)cn1 [Compound 18, 5-{8-(6-((1S,4S)-5-isopropyl-2,5-diazabicyclo[2.2.1]heptan-2-yl)pyridin-3-ylamino)-[1,2,4]triazolo[1,5-a]pyrazin-5-yl}-2,3-dihydro-isoindol-1-one] | > 1 µM
10 | CC(C)N1C[C@@H]2C[C@H]1CN2c1ccc(Nc2ncc(-c3cc[nH]c(=O)c3)n3ncnc23)cc1 [Compound 20, 4-(8-(4-((1S,4S)-5-isopropyl-2,5-diazabicyclo[2.2.1]heptan-2-yl)phenylamino)-[1,2,4]triazolo[1,5-a]pyrazin-5-yl)pyridin-2(1H)-one] | > 1 µM
11 | CCOc1cc(-c2cnc(Nc3ccc(N4C[C@@H]5C[C@H]4CN5C(C)C)cc3)c3nccn23)ccn1 [Compound 22, 5-(2-ethoxypyridin-4-yl)-N-(4-((1S,4S)-5-isopropyl-2,5-diazabicyclo[2.2.1]heptan-2-yl)phenyl)imidazo[1,2-a]pyrazin-8-amine] | > 1 µM
12 | CC(C)N1C[C@@H]2C[C@H]1CN2c1ccc(Nc2ncc(-c3cc[nH]c(=O)c3)n3ccnc23)cc1 [Compound 8, 4-{8-(4-((1S,4S)-5-isopropyl-2,5-diazabicyclo[2.2.1]heptan-2-yl)phenyl-amino)imidazo[1,2-a]pyrazin-5-yl}-1H-pyridin-2-one] | 0.001 to 0.5 µM
13 | CC(C)N1CC2CCC(C1)N2c1ccc(Nc2ncc(-c3coc(C(N)=O)c3)n3ccnc23)cc1 [Compound 11, 4-{8-(4-(3-isopropyl-3,8-diazabicyclo[3.2.1]octan-8-yl)phenylamino)-imidazo[1,2-a]pyrazin-5-yl}-furan-2-carboxamide] | > 1 µM
14 | CC(C)N1C2CCC1CN(c1ccc(Nc3ncc(-c4coc(C(N)=O)c4)n4ncnc34)cc1)C2 [Compound 12, 4-{8-(4-(8-isopropyl-3,8-diazabicyclo[3.2.1]octan-3-yl)phenylamino)[1,2,4]-triazolo[1,5-a]pyrazin-5-yl}-furan-2-carboxamide] | > 1 µM
15 | CC(C)N1C[C@@H]2C[C@H]1CN2c1cccc(Nc2ncc(-c3coc(C(N)=O)c3)n3ncnc23)c1 [Compound 24, 4-(8-(3-((1S,4S)-5-isopropyl-2,5-diazabicyclo[2.2.1]heptan-2-yl)phenylamino)-[1,2,4]triazolo[1,5-a]pyrazin-5-yl)furan-2-carboxamide] | > 1 µM
16 | CC(C)N1C[C@@H]2C[C@H]1CN2c1cccc(Nc2ncc(-c3coc(C(N)=O)c3)n3ccnc23)c1 [Compound 25, 4-(8-(3-((1S,4S)-5-isopropyl-2,5-diazabicyclo[2.2.1]heptan-2-yl)phenylamino)imidazo[1,2-a]pyrazin-5-yl)furan-2-carboxamide] | > 1 µM
17 | CC(C)N1C[C@@H]2C[C@H]1CN2c1ccc(Nc2ncc(-c3coc(C(N)=O)c3)n3ccnc23)cc1 [Compound 4, 4-{8-[4-((1S,4S)-5-Isopropyl-2,5-diaza-bicyclo[2.2.1]hept-2-yl)-phenylamino]-imidazo[1,2-a]pyrazin-5-yl}-furan-2-carboxamide] | > 1 µM
18 | CC(C)N1C[C@@H]2C[C@H]1CN2c1cccc(Nc2ncc(-c3ccc4c(c3)CNC4=O)n3ncnc23)c1 [Compound 26, 5-(8-(3-((1S,4S)-5-isopropyl-2,5-diazabicyclo[2.2.1]heptan-2-yl)phenylamino)-[1,2,4]triazolo[1,5-a]pyrazin-5-yl)isoindolin-1-one] | > 1 µM
19 | CC(C)(C)N1C[C@@H]2C[C@H]1CN2c1ccc(Nc2ncc(-c3cc(C(N)=O)n[nH]3)n3ncnc23)cc1 [Compound 17, 5-{8-(4-((1S,4S)-5-tert-butyl-2,5-diazabicyclo[2.2.1]heptan-2-yl)phenyl-amino)-[1,2,4]triazolo[1,5-a]pyrazin-5-yl}-1H-pyrazole-3-carboxylic acid amide] | 0.501 to 1 µM
20 | CC(C)(C)N1C[C@@H]2C[C@H]1CN2c1ccc(Nc2ncc(-c3coc(C(N)=O)c3)n3ncnc23)cc1 [Compound 3, 4-{8-[4-((1S,4S)-5-tert-Butyl-2,5-diaza-bicyclo[2.2.1]hept-2-yl)-phenylamino]-[1,2,4]triazolo[1,5-a]pyrazin-5-yl}-furan-2-carboxamide] | 0.001 to 0.5 µM
